The values that follow are results of earlier work, collected in PubChem BioAssay AID1259409 (Chemical Carcinogenesis Research Information System (CCRIS), 2018).

The series has as its system rodent chemically induced tumor inhibition, incidence and multiplicity. The series can be described thus: CCRIS tumor inhibitor studies. Conditions: Carcinogen: N-METHYL-N-NITROSOUREA [684-93-5]; Dose [Inhibitor]: 3 UG/ML IN DRINKING WATER, 2 WKS BEFORE CARCINOGEN AND FOR 26 WKS AFTER; Route [Inhibitor]: DRINKING WATER; Species: RAT; Strain/Sex: SPRAGUE-DAWLEY/FEMALE; Target Tissue: Type of Lesion: MAMMARY GLAND: CARCINOMA; Dose [Carcinogen]: 50 MG/KG BW ONCE AT 7 WKS OF AGE (IN SALINE SOLUTION).

Take `N[C@@H](Cc1cc(I)c(Oc2cc(I)c(O)c(I)c2)c(I)c1)C(=O)O`: the outcome was 8/11 (73%) vs 9/11 (82%) at 16 wks.
